Source: patent US8748452B2, “Indolizine derivative and use thereof for medical purposes” (Kissei Pharmaceutical Co., Ltd., priority 2009, dated 2014)

Key:
[1] = target: T1, Xanthine oxidase (from bovine milk, Sigma) (Bos taurus, UniProt P80457); test: Xanthine oxidase inhibitory activity; type: biochemical; conditions: xanthine oxidase from bovine milk 0.02 units/mL, xanthine 200 μM, 10 minutes at room temperature, absorbance at 290 nm
T1 construct: Xanthine oxidase (from bovine milk, Sigma); purchased Sigma; host or cells: bovine milk
T1 sequence (P80457 whole entry): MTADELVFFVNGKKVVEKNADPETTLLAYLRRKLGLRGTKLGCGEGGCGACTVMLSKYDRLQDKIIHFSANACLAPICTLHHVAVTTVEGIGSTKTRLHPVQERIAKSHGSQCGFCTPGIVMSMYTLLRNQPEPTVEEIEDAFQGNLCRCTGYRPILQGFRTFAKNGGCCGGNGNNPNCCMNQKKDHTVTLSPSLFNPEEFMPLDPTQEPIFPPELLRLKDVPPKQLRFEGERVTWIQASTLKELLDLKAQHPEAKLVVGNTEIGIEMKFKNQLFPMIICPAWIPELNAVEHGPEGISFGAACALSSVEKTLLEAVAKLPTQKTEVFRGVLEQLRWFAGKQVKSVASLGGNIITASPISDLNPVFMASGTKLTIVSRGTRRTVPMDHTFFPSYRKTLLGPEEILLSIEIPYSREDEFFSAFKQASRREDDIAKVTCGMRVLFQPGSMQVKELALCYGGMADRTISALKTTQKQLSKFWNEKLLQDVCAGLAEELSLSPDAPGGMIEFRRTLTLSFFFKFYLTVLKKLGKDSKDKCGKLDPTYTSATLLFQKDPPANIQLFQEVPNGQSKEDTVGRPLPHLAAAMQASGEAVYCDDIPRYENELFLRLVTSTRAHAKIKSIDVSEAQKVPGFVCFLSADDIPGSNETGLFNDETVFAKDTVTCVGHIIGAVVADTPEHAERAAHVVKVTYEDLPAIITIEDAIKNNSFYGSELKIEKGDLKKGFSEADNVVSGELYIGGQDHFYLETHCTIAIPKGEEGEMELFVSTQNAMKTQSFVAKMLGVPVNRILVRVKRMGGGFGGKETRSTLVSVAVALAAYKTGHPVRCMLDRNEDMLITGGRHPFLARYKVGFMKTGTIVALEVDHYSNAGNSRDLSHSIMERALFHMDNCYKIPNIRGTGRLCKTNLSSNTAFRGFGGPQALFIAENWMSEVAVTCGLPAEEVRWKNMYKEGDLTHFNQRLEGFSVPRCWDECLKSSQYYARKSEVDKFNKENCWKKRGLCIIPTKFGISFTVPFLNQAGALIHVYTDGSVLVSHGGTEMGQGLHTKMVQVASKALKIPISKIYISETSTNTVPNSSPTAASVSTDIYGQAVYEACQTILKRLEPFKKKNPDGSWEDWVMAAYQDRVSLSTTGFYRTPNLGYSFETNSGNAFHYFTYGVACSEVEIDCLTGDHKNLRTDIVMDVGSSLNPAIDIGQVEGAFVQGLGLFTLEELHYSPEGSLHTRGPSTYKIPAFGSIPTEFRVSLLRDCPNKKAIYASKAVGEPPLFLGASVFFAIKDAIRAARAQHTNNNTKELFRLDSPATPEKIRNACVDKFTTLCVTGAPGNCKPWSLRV
Procedure: (1) Preparation of test compounds
Test compounds were dissolved in DMSO (Wako pure chemical) at 40 mM concentration and then diluted to intended concentrations with phosphate-buffered saline (PBS).
(2) Method for measurement
Xanthine oxidase (from bovine milk, Sigma) was prepared with phosphate-buffered saline (PBS) at 0.02 units/mL, and then the solution was added to 96 well plates at 50 μL/well. In addition, test compounds diluted with PBS were added at 50 μL/well. Xanthine (Wako pure chemical) at 200 μM prepared with PBS was added at 100 μL/well, and the mixture was reacted for 10 minutes at room temperature. Absorbance at 290 nm was measured using a microplate reader SpectraMax Plus 384 (Molecular device). The absorbance under a condition without xanthine is 0%, and control without test compounds is 100%. Fifty % inhibitory concentration (IC50) of test compounds was calculated (Table 17). Ex. No. in the table indicates Example number.

human URAT1 = target: T2, human URAT1 (Homo sapiens, UniProt Q96S37); test: Inhibitory activity of uric acid transport with human URAT1 expressing cells; type: cell-based; conditions: COS-7; concentration of 10 μM; 14C-labeled uric acid 20 μM, 5 minutes uptake, COS7 cells transiently expressing human URAT1
T2 construct: expressed in transfected cells; host or cells: COS7 cells (RIKEN CELL BANK RCB0539), transient, pcDNA3.1
T2 sequence (Q96S37 1-553): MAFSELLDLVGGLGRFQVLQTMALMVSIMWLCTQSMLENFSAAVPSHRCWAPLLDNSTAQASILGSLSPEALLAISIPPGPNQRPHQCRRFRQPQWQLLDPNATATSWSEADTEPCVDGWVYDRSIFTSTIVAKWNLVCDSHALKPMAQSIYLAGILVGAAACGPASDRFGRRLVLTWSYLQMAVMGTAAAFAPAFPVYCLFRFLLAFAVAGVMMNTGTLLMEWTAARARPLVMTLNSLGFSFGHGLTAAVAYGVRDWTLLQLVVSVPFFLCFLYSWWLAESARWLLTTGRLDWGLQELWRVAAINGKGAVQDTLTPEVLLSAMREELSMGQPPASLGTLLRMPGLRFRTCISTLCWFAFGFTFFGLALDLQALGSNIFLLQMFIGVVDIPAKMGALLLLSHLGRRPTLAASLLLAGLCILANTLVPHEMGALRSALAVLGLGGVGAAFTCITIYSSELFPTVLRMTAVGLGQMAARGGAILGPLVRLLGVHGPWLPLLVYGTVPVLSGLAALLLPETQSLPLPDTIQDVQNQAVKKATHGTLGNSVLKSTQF
Procedure: (1) Preparation of transiently human URAT1 expressing cells
Full length human URAT1 cDNA (NCBI Accession No. NM_144585) was subcloned into expression vector, pcDNA3.1 (Invitrogen). Human URAT1 expression vector was transfected into COS7 cells (RIKEN CELL BANK RCB0539) using Lipofectamine 2000 (Invitrogen). COS7 cells were seeded in collagen-coated 24 well plates (Beckton Dickinson) at 3×10^5 cells / well and cultured in D-MEM culture medium (Invitrogen) containing 10% fetal bovine serum (Sanko Junyaku) for 2 hours at 37° C. under the condition of 5% CO2. For 1 well, 2 μL of Lipofectamine 2000 was diluted in 50 μL of OPTI-MEM (Invitrogen) and allowed to stand at room temperature for 7 minutes (hereinafter referred to as Lipo2000-OPTI). For 1 well, 0.8 μg of human URAT1 expression vector was diluted in 50 μL of OPTI-MEM (Invitrogen) and combined gently with Lipo2000-OPTI. After standing at room temperature for 25 minutes, the mixture was added to COS7 cells at 100 μL/well. Furthermore, COS7 cells were cultured for 2 days at 37° C. under the condition of 5% CO2 and used for measuring inhibitory activity on the uptake.
(2) Preparation of test compounds
Test compounds were dissolved in DMSO (Wako pure chemical) at 10 mM concentration and then diluted to 2 times higher concentration than intended with pre-treatment buffer (125 mM sodium gluconate, 4.8 mM potassium gluconate, 1.2 mM potassium dihydrogen phosphate, 1.2 mM magnesium sulfate, 1.3 mM calcium gluconate, 5.6 mM glucose, 25 mM Hepes, pH 7.4). Pre-treatment buffer without test compounds was used for control. In addition, an equal volume of pre-treatment buffer containing ^14C-labeled uric acid (American Radiolabeled Chemicals, Inc.) was added to test compounds and control, and finally assay buffer including 20 μM uric acid was prepared.
(3) Method for measurement
All tests were performed on hot-plate at 37° C. Pre-treatment buffer and assay buffer were incubated at 37° C. and then used for assays. Medium was removed from plates, and 700 μL of pre-treatment buffer was added, and the cells were pre-incubated for 10 minutes. After repeating the same step, pre-treatment buffer was removed, and assay buffer was added at 400 μL/well. The uptake reaction was carried out for 5 minutes. After terminating the reaction, assay buffer was rapidly removed, and the cells were washed twice with addition of ice-cold pre-treatment buffer at 1.2 mL/well. Then, the cells were lysed by addition of 0.2 mol/L sodium hydroxide at 300 μL/well. The lysed solutions were transferred into Picoplate (PerkinElmer), and Microscinti 40 (PerkinElmer) was added at 600 μL/well. After mixing, the radioactivity was counted in a liquid scintillation counter (PerkinElmer). The radioactivity in COS7 cells not transfected with URAT1 expression vector was also counted under the same condition as control. As a result, it was shown that compounds of Examples 5, 8, 17, 18, 22, 40 and 55 have inhibitory activity of 50% or higher in a concentration of 10 μM.

male CD (SD) IGS rats = test: Serum hypouricemic effect; type: in vivo; conditions: Rattus norvegicus; 1 mg/kg oral gavage, overnight fasted male rats, serum at 2 hours after administration; read-out: percent decrease in uric acid
Procedure: Test compounds at 1 mg/kg suspended in 0.5% methylcellulose solution were administered by oral gavage administration to overnight fasted male CD (SD) IGS rats (5-week-old, Charls River Japan). At 2 hours after administration, blood was collected under ether anesthesia from abdominal aorta, and serum was separated according to general method. Serum uric acid values were determined by use of uric acid measurement kit (Uric acid C-Test Wako: Wako pure chemical), and percent decrease in uric acid was calculated according to the formula described below. As a result, it was shown that compounds of Examples 2, 7, 10, 22, 23, 25, 37, 49, 50 and 58 have over 60% percent decrease in uric acid.
Percent decrease in uric acid (%)=(Serum uric acid values in control animals−Serum uric acid values in animals administered test compounds)×100/Serum uric acid values in control animals

Structure (SMILES) | IC50 [1] | inhibition at 10 µM (human URAT1) | inhibition in vivo at 1 mg/kg (male CD (SD) IGS rats)
N#Cc1cc(-c2ccc(C(=O)O)cc2)n2cc(F)cc(F)c12 [Example 40] | 14 nM | ≥ 50% | –
Cc1ccc2c(C#N)cc(-c3ccc(C(=O)O)cc3)n2c1 [Example 5] | 10 nM | ≥ 50% | –
Cc1ccn2c(-c3ccc(C(=O)O)c(O)c3)cc(C#N)c2c1 [Example 18] | 3 nM | ≥ 50% | –
Cc1cc2c(C#N)cc(-c3ccc(C(=O)O)cc3)n2cc1F [Example 8] | 6 nM | ≥ 50% | –
N#Cc1cc(-c2ccc(C(=O)O)c(O)c2)n2cc(F)cc(F)c12 [Example 55] | 6 nM | ≥ 50% | –
Cc1cc2c(C#N)cc(-c3ccc(C(=O)O)c(O)c3)n2cc1F [Example 22] | 3 nM | ≥ 50% | > 60%
